According to PMC5128743, “Marine Fungi as Producers of Benzocoumarins, a New Class of Inhibitors of Glycogen-Synthase-Kinase 3β” (Marine Drugs, 2016):
Like-named read-outs stand apart in the source and are kept apart here.

Legend:
[1] = target: T1, GSK-3β (N-terminal His6-tagged recombinant human GSK3β with an H350L mutation) (Homo sapiens, UniProt P49841); assay: GSK-3β luminescent (Kinase-Glo) inhibition assay; assay type: biochemical
T1 construct: His6 (N); purchased EMD Millipore, Billerica, MA, USA
T1 sequence (P49841 whole entry, stated change not applied): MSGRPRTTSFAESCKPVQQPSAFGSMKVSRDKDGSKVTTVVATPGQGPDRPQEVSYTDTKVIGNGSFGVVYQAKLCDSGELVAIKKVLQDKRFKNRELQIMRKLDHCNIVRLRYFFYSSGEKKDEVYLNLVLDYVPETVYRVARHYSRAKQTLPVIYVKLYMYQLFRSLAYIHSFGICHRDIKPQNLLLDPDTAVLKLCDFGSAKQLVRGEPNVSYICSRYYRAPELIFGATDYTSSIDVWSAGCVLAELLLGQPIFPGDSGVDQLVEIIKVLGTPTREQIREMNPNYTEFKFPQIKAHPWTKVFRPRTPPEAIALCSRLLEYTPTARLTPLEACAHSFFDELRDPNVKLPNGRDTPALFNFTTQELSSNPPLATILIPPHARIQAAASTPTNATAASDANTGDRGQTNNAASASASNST
Procedure: (§1) The assay is based on the phosphorylation of a peptide by the enzyme with ATP as phosphate donor. ATP, luciferin, and oxygen react to oxyluciferin, which is measured as a luminescence signal. The more the enzyme is inhibited, the stronger the luminescence signals are because of high ATP levels. 20 μL substrate solution (2 μM ATP, 40 μM peptide HSSPHQ-pSer-EDEEE (BIOSYNTAN, Berlin, Germany)) and 10 μL enzyme solution (12 mU GSK-3β (N-terminal His6-tagged recombinant human GSK3β with an H350L mutation, EMD Millipore, Billerica, MA, USA)) were incubated for 60 min at 25 °C. Then 40 μL Kinase-Glo reagent (Kinase-Glo Luminescent Assay Kit, Promega, Darmstadt, Germany) was added. After centrifugation and incubation for 10 min at 25 °C, the luminescence was measured. […] The antimicrobial activities of compounds 1, 2, and 3 against the bacterium Bacillus subtilis (DSM 347) and the human pathogenic yeast Candida albicans (DSM 1386) were determined according to Ohlendorf et al.. The determination of inhibitory activities against Xanthomonas campestris, Septoria tritici, and Propionibacterium acnes, as well as the cytotoxic activity against the cell line […] was carried out as described by Schneemann et al..

Staphylococcus lentus = assay: Growth inhibition of Staphylococcus lentus; assay type: cell-based; settings: Mammaliicoccus lentus; test concentration of 100 μM; read-out: inhibition of growth of S. lentus
HepG2 = assay: Cytotoxic activity against cancer cell line HepG2; settings: concentration not given
Procedure: as §1

[2] = test system: HMGCoA (3-hydroxy-3-methylglutaryl coenzyme A reductase); parameters: method as in PMID 1880066; settings: cited from earlier work
[3] = test system: Bacillus subtilis (DSM 347); assay: Growth inhibition of Bacillus subtilis; assay type: cell-based
Procedure: as §1

[4] = luminescent assay, 2 μM ATP substrate solution, 60 min at 25 °C
[5] = DSM347, read-out: inhibition of growth of B. subtilis

Structure (SMILES)	IC50 of GSK-3β inhibition [1, 4]	IC50 ([1]; luminescent assay, 2 μM ATP substrate solution, 60 min at 25 °C, read-out: IC50 of GSK-3β inhibition) [nM]	inhibition at 100 µM (Staphylococcus lentus) [%]	inhibition (cytotoxic effect) of cancer cell line HepG2 (HepG2)	HMGCoA reductase inhibiting activity [2]	inhibition at 100 µM ([3]; DSM347, test concentration of 100 μM, read-out: inhibition of growth of B. subtilis) [%]	IC50 [1] [nM]	inhibition at 100 µM [3, 5] [%]
Cc1cc2cc(O)cc(O)c2c2oc(=O)cc(O)c12 [Compound 1, pannorin]	sub-μM	350 ± 40	88	lower than 35%	inhibiting activity	54		
Cc1cc(O)cc2oc(=O)c3c(O)cc(O)cc3c12 [Compound 2, alternariol]	sub-μM		66	lower than 35%			130 ± 40	79
COc1cc(O)c2c(=O)oc3cc(O)cc(C)c3c2c1 [Compound 3, alternariol-9-methylether]	sub-μM		25	lower than 35%			200 ± 20	82
